Source: PubChem BioAssay AID2060886 (Molecular Pharmacology Branch, DTP, NCI, 2025)
Where “and” joins values, the source holds several entries; their conditions need not be identical. Equal entries are not always repeated.

Test system: 653999-131-R-J2-PDC complex spheroids, growth inhibition
Assay: Anticancer human tumor 653999-131-R-J2-PDC patient-derived lung adenocarcinoma cell line growth inhibition [RAS]
Settings: for viability, T/C: stronger effect = lower value
Description: RAS pathway inhibitors in Combinations in Complex Spheroids
A high-throughput screen of multi-cell type tumor spheroids was designed to identify active combinations of RAS pathway inhibitors and targeted small molecules. Complex spheroids include a stromal component modeled by human endothelial cells (HUVEC) and fibroblasts modeled by human mesenchymal stem cells (MSCs). The concentration ranges selected for each drug and investigational agent were based upon clinically achievable concentrations if the clinical Cmax of the agent was known.
Compounds. The drugs and investigational agents: abemaciclib (NSC768073), cobimetinib (NSC768068), divarasib (GDC6063, NSC841802), docetaxel (NSC628503), GDC-1971 (RLY-1971, NSC841576), gemcitabine (NSC613327), inavolisib (NSC800729), ipatasertib (NSC767898), KB-0742 (NSC834161), MRTX-1133 (NSC836407), osimertinib (NSC779217), RMC-4630 (NSC839698), RMC-6236 (NSC851965), RMC-6291 (NSC852671), Ro-3306 (NSC812927), sapanisertib (NSC764658), SN-38 (NSC673596), staurosporine (NSC755774), SY5609 (NSC837396), and tovorafenib (DAY101, NSC766906), were obtained from the National Cancer Institute (NCI) Developmental Therapeutics Program Chemical Repository. The FDA-approved anticancer drug set is available from the NCI Developmental Therapeutics Program. […] The stock solutions were prepared in dimethyl sulfoxide (DMSO, Sigma-Aldrich, St. Louis, MO, cat. D2650) at 800-fold the tested concentration and stored at -70 degrees C prior to their use. All drugs and investigational agents were tested over a range starting from a high concentration at or near the clinical Cmax and decreasing in half-log increments. If the clinical Cmax for an agent had not been determined, the highest concentration tested was 10 microM.
Cell Culture. All cells were maintained in an incubator at 37 degrees C and 5% CO2 with 95% humidity. The PDC lines were cultured according to standard operating procedures established by the NCI PDMR. All PDCs were thawed and cultured in Matrigel-coated flasks prepared with a working solution of 1X Ham's F-12 nutrient mix, without supplementation (Invitrogen, Waltham, MA, cat. 11765054), 100 U/mL penicillin-streptomycin (Invitrogen, cat. 15140122), and 2.5% Matrigel (Corning Inc., Corning, NY, cat. 354248) for the first three passages. The 362531-283-R-J2-PDC and 782815-120-R-J1-PDC lines were cultured in 6C/Colon 1B media, which includes advanced DMEM/F-12 (Thermo Fisher Scientific, cat. 12634028), 10 mM HEPES (Thermo Fisher Scientific, cat. 15630080), 1X GlutaMAX supplement (Thermo Fisher Scientific, cat. 35050061), 0.1 mg/mL primocin (InvivoGen, San Diego, CA, cat. ant-pm-2), 10% defined fetal bovine serum, heat inactivated (HyClone Laboratories Inc., Logan, UT, cat. SH30070.03HI), 50% L-WRN conditioned media (ATCC, cat. CRL-3276), 1.25 mM N-Acetyl-L-cysteine (Sigma-Aldrich, cat. A9165), 10 mM nicotinamide (Sigma-Aldrich, cat. N0636), 1X B-27 supplement (Thermo Fisher Scientific, cat. 17504044), 1X N-2 supplement (Thermo Fisher Scientific, cat. 17502048), 50 ng/mL human EGF (Thermo Fisher Scientific, cat. PHG0311), and 10 microM Y-27632 dihydrochloride (Tocris Bioscience, cat. 1254). The K12877-001-R-J1-PDC line was cultured in 6I media, which includes all 6C/Colon 1B media plus 10 ng/mL human FGF-10 (PeproTech, cat. 100-26), 1 ng/mL human FGF-2 (PeproTech, cat. 100-18B), 1 µM prostaglandin E2 (Tocris Bioscience, cat. 2296), […] hydrocortisone (Sigma-Aldrich, cat. H4001), and […] bovine insulin (Sigma-Aldrich, cat. I6634). The K86415-001-R-J1-PDC line was cultured in 6D media, which includes all 6C/Colon 1B media components minus the L-WRN conditioned media. The 485176-168-R4-J1-PDC was cultured in PANC media, which includes all 6C/Colon 1B media plus 100 ng/mL human FGF-10 (PeproTech, cat. 100-26), 500 nM SB-431542 (Selleckchem, cat. S1067), and 10 nM gastrin (Tocris Bioscience, cat. 3006). […]

[1] = curve of first compound, second compound 0.0316 µM
[2] = curve of first compound, second compound 0.1 µM
[3] = curve of first compound, second compound 0.316 µM
[4] = curve of first compound, second compound 1 µM
[5] = second compound 0.0316 µM, first compound 0.0316 µM
[6] = second compound 0.0316 µM, first compound 0.1 µM
[7] = second compound 0.0316 µM, first compound 0.316 µM
[8] = second compound 0.0316 µM, first compound 1 µM
[9] = second compound 0.1 µM, first compound 0.0316 µM
[10] = second compound 0.1 µM, first compound 0.1 µM
[11] = second compound 0.1 µM, first compound 0.316 µM
[12] = second compound 0.1 µM, first compound 1 µM
[13] = second compound 0.316 µM, first compound 0.0316 µM
[14] = second compound 0.316 µM, first compound 0.1 µM
[15] = second compound 0.316 µM, first compound 0.316 µM
[16] = second compound 0.316 µM, first compound 1 µM
[17] = second compound 1 µM, first compound 0.0316 µM
[18] = second compound 1 µM, first compound 0.1 µM
[19] = second compound 1 µM, first compound 0.316 µM
[20] = second compound 1 µM, first compound 1 µM
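Also: spheroids exposed to the agents for seven days before the readout.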

C[C@@H](NC(=O)c1ncnc(N)c1Cl)c1ncc(C(=O)Nc2cc(C(F)(F)F)c(Cl)cn2)s1 + C=CC(=O)N1CCN(c2nc(OCC3CCCN3C)nc3c(F)c(-c4nc(N)cc(C)c4C(F)(F)F)c(Cl)cc23)C(C)C1
IC50 (curve of first compound, second compound 0.00316 µM): > 10 µM | IC50 (curve of first compound, second compound 0.01 µM): > 10 µM | IC50 [1]: > 10 µM | IC50 [2]: > 10 µM | IC50 [3]: > 10 µM | IC50 [4]: > 10 µM | viability, T/C (second compound 0.00316 µM, first compound 0.0316 µM): 120% | viability, T/C (second compound 0.00316 µM, first compound 0.1 µM): 85% | viability, T/C (second compound 0.00316 µM, first compound 0.316 µM): 101% | viability, T/C (second compound 0.00316 µM, first compound 1 µM): 81% | viability, T/C (second compound 0.00316 µM, first compound 3.16 µM): 88.5% | viability, T/C (second compound 0.00316 µM, first compound 10 µM): 81% | viability, T/C (second compound 0.01 µM, first compound 0.0316 µM): 127% | viability, T/C (second compound 0.01 µM, first compound 0.1 µM): 108% | viability, T/C (second compound 0.01 µM, first compound 0.316 µM): 89% | viability, T/C (second compound 0.01 µM, first compound 1 µM): 93.5% | viability, T/C (second compound 0.01 µM, first compound 3.16 µM): 98% | viability, T/C (second compound 0.01 µM, first compound 10 µM): 71.3% | viability, T/C [5]: 116% | viability, T/C [6]: 90.3% | viability, T/C [7]: 93.5% | viability, T/C [8]: 89.9% | viability, T/C (second compound 0.0316 µM, first compound 3.16 µM): 84.3% | viability, T/C (second compound 0.0316 µM, first compound 10 µM): 73.2% | viability, T/C [9]: 105% | viability, T/C [10]: 95.2% | viability, T/C [11]: 101% | viability, T/C [12]: 94.3% | viability, T/C (second compound 0.1 µM, first compound 3.16 µM): 89.5% | viability, T/C (second compound 0.1 µM, first compound 10 µM): 84.2% | viability, T/C [13]: 107% | viability, T/C [14]: 96.1% | viability, T/C [15]: 110% | viability, T/C [16]: 97.6% | viability, T/C (second compound 0.316 µM, first compound 3.16 µM): 85.1% | viability, T/C (second compound 0.316 µM, first compound 10 µM): 86.1% | viability, T/C [17]: 90.9% | viability, T/C [18]: 96.7% | viability, T/C [19]: 104% | viability, T/C [20]: 99.5% | viability, T/C (second compound 1 µM, first compound 3.16 µM): 87.5% | viability, T/C (second compound 1 µM, first compound 10 µM): 82.2%

C=CC(=O)N1CCN(c2nc(OCC3CCCN3C)nc3c(F)c(-c4nc(N)cc(C)c4C(F)(F)F)c(Cl)cc23)C(C)C1 (stereo not drawn) + C#Cc1c(F)ccc2cc(O)cc(-c3ncc4c(N5CC6CCC(C5)N6)nc(OCC56CCCN5CC(F)C6)nc4c3F)c12
IC50 [1]: > 1 µM | IC50 [2]: > 1 µM | IC50 [3]: > 1 µM | IC50 [4]: > 1 µM | IC50 (curve of first compound, second compound 3.16 µM): < 0.00316 µM | IC50 (curve of first compound, second compound 10 µM): < 0.00316 µM | viability, T/C (second compound 0.0316 µM, first compound 0.00316 µM): 117% | viability, T/C (second compound 0.0316 µM, first compound 0.01 µM): 91.3% | viability, T/C [5]: 95.9% | viability, T/C [6]: 82.3% | viability, T/C [7]: 99.1% | viability, T/C [8]: 85.2% | viability, T/C (second compound 0.1 µM, first compound 0.00316 µM): 92.7% | viability, T/C (second compound 0.1 µM, first compound 0.01 µM): 84.1% | viability, T/C [9]: 73.9% | viability, T/C [10]: 78.5% | viability, T/C [11]: 83.3% | viability, T/C [12]: 73.1% | viability, T/C (second compound 0.316 µM, first compound 0.00316 µM): 71.7% | viability, T/C (second compound 0.316 µM, first compound 0.01 µM): 62.5% | viability, T/C [13]: 65.6% | viability, T/C [14]: 67.8% | viability, T/C [15]: 70.2% | viability, T/C [16]: 52.8% | viability, T/C (second compound 1 µM, first compound 0.00316 µM): 41.5% | viability, T/C (second compound 1 µM, first compound 0.01 µM): 63% | viability, T/C [17]: 54% | viability, T/C [18]: 53.8% | viability, T/C [19]: 55.4% | viability, T/C [20]: 46.5% | viability, T/C (second compound 3.16 µM, first compound 0.00316 µM): 38% | viability, T/C (second compound 3.16 µM, first compound 0.01 µM): 55.2% | viability, T/C (second compound 3.16 µM, first compound 0.0316 µM): 39% | viability, T/C (second compound 3.16 µM, first compound 0.1 µM): 35% | viability, T/C (second compound 3.16 µM, first compound 0.316 µM): 43.8% | viability, T/C (second compound 3.16 µM, first compound 1 µM): 31.4% | viability, T/C (second compound 10 µM, first compound 0.00316 µM): 24.5% | viability, T/C (second compound 10 µM, first compound 0.01 µM): 26.7% | viability, T/C (second compound 10 µM, first compound 0.0316 µM): 20.8% | viability, T/C (second compound 10 µM, first compound 0.1 µM): 31.9% | viability, T/C (second compound 10 µM, first compound 0.316 µM): 27% | viability, T/C (second compound 10 µM, first compound 1 µM): 29.6%

C[C@@H](NC(=O)c1ncnc(N)c1Cl)c1ncc(C(=O)Nc2cc(C(F)(F)F)c(Cl)cn2)s1
viability, T/C (compound 0.0316 µM): 110% and 94.1% and 103% | viability, T/C (compound 0.1 µM): 99.2% and 120% and 108% | viability, T/C (compound 0.316 µM): 93.9% and 101% and 114% | viability, T/C (compound 1 µM): 91.1% and 102% and 105% | viability, T/C (compound 3.16 µM): 98.3% and 99.8% and 102% | viability, T/C (compound 10 µM): 68.6% and 79% and 75.5% | IC50 (curve of compound): > 10 µM

Nc1ccn(C2OC(CO)C(O)C2(F)F)c(=O)n1 (stereo not drawn)
viability, T/C (compound 0.00316 µM): 90.2% [middle of 4 runs] | viability, T/C (compound 0.01 µM): 76.4% [middle of 4 runs] | viability, T/C (compound 0.0316 µM): 62.9% [middle of 4 runs] | viability, T/C (compound 0.1 µM): 51.2% [middle of 4 runs] | viability, T/C (compound 0.316 µM): 43.1% [middle of 4 runs] | viability, T/C (compound 1 µM): 34.1% and 30.3% (2×) and 33.9% | IC50 (curve of compound): 99.5 nM [middle of 4 runs]
